Test results as given in ChEMBL document CHEMBL1165990, “Semi-synthetic analogues of thiostrepton delimit the critical nature of tail region modifications in the control of protein biosynthesis and antibacterial activity” (Bioorg Med Chem, 2010).
The source made the active and inactive calls. No cut-off for these calls is given here.

Key:
Staphylococcus aureus [1] = test: Antibacterial activity against Staphylococcus aureus ATCC 6338 by NCCLS method; assay type: functional
Bacillus subtilis [2] = test: Antibacterial activity against Bacillus subtilis ATCC 6633 by NCCLS method; assay type: functional
Escherichia coli [3] = test: Antibacterial activity against Escherichia coli by NCCLS method; assay type: functional
Escherichia coli [4] = test: Antibacterial activity against Escherichia coli assessed as inhibition of protein synthesis after 60 mins by luminescence assay; assay type: functional, organism-based
Escherichia coli [5] = test: Antibacterial activity against Escherichia coli assessed as inhibition of protein synthesis at 0.1 to 0.4 uM after 60 mins by luminescence assay; assay type: functional, organism-based
[6] = Aqueous solubility of the compound; assay type: physicochemical; details: buffer
Staphylococcus aureus [7] = test: Antibacterial activity against Staphylococcus aureus ATCC 6338 by disk diffusion assay; assay type: functional
Bacillus subtilis [8] = test: Antibacterial activity against Bacillus subtilis ATCC 6633 by disk diffusion assay; assay type: functional
Escherichia coli [9] = test: Antibacterial activity against Escherichia coli by disk diffusion assay; assay type: functional
Escherichia coli [10] = test: Antibacterial activity against Escherichia coli assessed as inhibition of protein synthesis at 0.01 to 0.96 uM after 60 mins by luminescence assay; assay type: functional, organism-based

SMILES	MIC (Staphylococcus aureus [1]) [µg/mL]	MIC (Bacillus subtilis [2]) [µg/mL]	MIC (Escherichia coli [3]) [µg/mL]	inhibition (Escherichia coli [5])	also measured
C=C(NC(=O)c1csc(C2=N[C@@H]3c4csc(n4)[C@H]4NC(=O)c5csc(n5)[C@H]([C@](C)(O)[C@H](C)O)NC(=O)[C@H]5CSC(=N5)/C(=C/C)NC(=O)[C@H]([C@@H](C)O)NC(=O)c5csc(n5)[C@]3(CC2)NC(=O)[C@H](C)NC(=O)C(=C)NC(=O)[C@H](C)NC(=O)[C@H]([C@@H](C)CC)N[C@@H]2C=Cc3c([C@H](C)O)cc(nc3[C@H]2O)C(=O)O[C@@H]4C)n1)C(=O)NC(CS[C@@H]1O[C@H](CO)[C@@H](O)[C@H](O)[C@H]1O)C(N)=O (stereo partly drawn)	–	–	–	–	MIC (Staphylococcus aureus [7]): ≥ 50 µg/mL; MIC (Bacillus subtilis [8]): ≥ 50 µg/mL; MIC (Escherichia coli [9]): ≥ 50 µg/mL
C=C(NC(=O)c1csc(C2=N[C@@H]3c4csc(n4)[C@H]4NC(=O)c5csc(n5)[C@H]([C@](C)(O)[C@H](C)O)NC(=O)[C@H]5CSC(=N5)/C(=C/C)NC(=O)[C@H]([C@@H](C)O)NC(=O)c5csc(n5)[C@]3(CC2)NC(=O)[C@H](C)NC(=O)C(=C)NC(=O)[C@H](C)NC(=O)[C@H]([C@@H](C)CC)N[C@@H]2C=Cc3c([C@H](C)O)cc(nc3[C@H]2O)C(=O)O[C@@H]4C)n1)C(=O)NC(CSC[C@@H](C)C(=O)N1CCC[C@H]1C(=O)O)C(N)=O (stereo in doubt; 3)	–	–	–	Active	–
C=C(NC(=O)c1csc(C2=N[C@@H]3c4csc(n4)[C@H]4NC(=O)c5csc(n5)[C@H]([C@](C)(O)[C@H](C)O)NC(=O)[C@H]5CSC(=N5)/C(=C/C)NC(=O)[C@H]([C@@H](C)O)NC(=O)c5csc(n5)[C@]3(CC2)NC(=O)[C@H](C)NC(=O)C(=C)NC(=O)[C@H](C)NC(=O)[C@H]([C@@H](C)CC)N[C@@H]2C=Cc3c([C@H](C)O)cc(nc3[C@H]2O)C(=O)O[C@@H]4C)n1)C(=O)NC(CSC[C@@H](C)C(=O)N1CCC[C@H]1C(=O)O)C(N)=O (stereo in doubt; 4) [listing 1 of 2 here]	≤ 32	≤ 32	≥ 128	–	–
C=C(NC(=O)c1csc(C2=N[C@@H]3c4csc(n4)[C@H]4NC(=O)c5csc(n5)[C@H]([C@](C)(O)[C@H](C)O)NC(=O)[C@H]5CSC(=N5)/C(=C/C)NC(=O)[C@H]([C@@H](C)O)NC(=O)c5csc(n5)[C@]3(CC2)NC(=O)[C@H](C)NC(=O)C(=C)NC(=O)[C@H](C)NC(=O)[C@H]([C@@H](C)CC)N[C@@H]2C=Cc3c([C@H](C)O)cc(nc3[C@H]2O)C(=O)O[C@@H]4C)n1)C(=O)NC(CSC[C@@H](C)C(=O)N1CCC[C@H]1C(=O)O)C(N)=O (stereo in doubt; 4) [listing 2 of 2 here]	–	–	–	Active	–

Further lines, with some results ahead:

MIC (Staphylococcus aureus [1]) [µg/mL]	MIC (Bacillus subtilis [2]) [µg/mL]	MIC (Escherichia coli [3]) [µg/mL]	SMILES	inhibition (Escherichia coli [5])	also measured
≤ 2	≤ 8	≥ 128	C=C(NC(=O)c1csc(C2=N[C@@H]3c4csc(n4)[C@H]4NC(=O)c5csc(n5)[C@H]([C@](C)(O)[C@H](C)O)NC(=O)[C@H]5CSC(=N5)/C(=C/C)NC(=O)[C@H]([C@@H](C)O)NC(=O)c5csc(n5)[C@]3(CC2)NC(=O)[C@H](C)NC(=O)C(=C)NC(=O)[C@H](C)NC(=O)[C@H]([C@@H](C)CC)N[C@@H]2C=Cc3c([C@H](C)O)cc(nc3[C@H]2O)C(=O)O[C@@H]4C)n1)C(=O)NC(CSCCS(=O)(=O)O)C(N)=O (stereo partly drawn)	Active	inhibition (Escherichia coli [4]): Dose-dependent effect; solubility [6]: Soluble
≤ 0.0625	≤ 0.25	≥ 32	C=C(NC(=O)C(=C)NC(=O)c1csc(C2=N[C@@H]3c4csc(n4)[C@H]4NC(=O)c5csc(n5)[C@H]([C@](C)(O)[C@@H](C)O)NC(=O)[C@H]5CSC(=N5)/C(=C/C)NC(=O)[C@H]([C@@H](C)O)NC(=O)c5csc(n5)[C@]3(CC2)NC(=O)[C@H](C)NC(=O)C(=C)NC(=O)[C@H](C)NC(=O)[C@H]([C@@H](C)CC)N[C@@H]2C=Cc3c([C@H](C)O)cc(nc3[C@H]2O)C(=O)O[C@@H]4C)n1)C(N)=O [THIOSTREPTON]	–	inhibition (Escherichia coli [10]): Active
